Like-named read-outs stand apart in the source and are kept apart here.
Assays:
[1] = test system: genotype A, "Long" strain RSV; assay: RSV-A assay: CPE protection in HEp-2 cells, ATPlite readout; format: cell-based, human respiratory syncytial virus
Procedure, shortened: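 EC50 derives from ATPlite luminescence after 5-day culture of RSV Long-infected (MOI 0.1) HEp-2 cells, seeded 8,000/well, exposed to duplicate 2-fold compound series. CC50 comes from an identical plate receiving medium instead of virus.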

HEp-2 cells = assay: Cytotoxicity in parallel to the RSV-A assay (no virus), ATPlite readout; format: cell-based, human
Procedure: Following extensive parameter testing, the final assay is run as follows: HEp-2 cells are seeded into the inner 60 wells of a 96-well plate at 8,000 cells per well in a volume of 50 μL using Growth Media (DMEM without phenol red, 1% L-Glut, 1% Penn/Strep, 1% nonessential amino acids, 10% heat-inactivated FBS). 2-fold serial dilutions of control and test compounds are added to the wells in duplicate in a total volume of 25 μL. Viral stock is then added to the wells at a multiplicity of infection (MOI) of 0.1 in a volume of 25 μL, bringing the total volume of each well to 100 μL. The MOI is calculated using the PFU/mL, or TCID50 if unavailable. Each 96-well plate has a control column of 6 wells with cells and virus but no compound (negative control, max CPE), a column with cells but no compound or virus (positive control, minimum CPE), and a column with no cells or virus or compound (background plate/reagent control). The control wells with cells but no virus are given an additional 25 μL of growth media containing an equal quantity of sucrose as those wells receiving the viral stock in order to keep consistent in media and volume conditions. The outer wells of the plate are filled with 125 μL of moat media (DMEM, 1% Penn/Strep) to act as a thermal and evaporative moat around the test wells. Following a 5-day incubation period, the plates are read using ATPlite (50 μL added per well), which quantifies the amount of ATP (a measure of cell health) present in each well. Assay plates are read using the Envision luminometer. In parallel, cytotoxicity is examined on an additional 96-well plate treated in an identical manner, but substituting the 25 μL of viral stock for 25 μL of growth media. […] EC50 ranges are as follows: A <0.4 μM; B 0.4-0.8 μM; C >0.8 μM and CC50 ranges are as follows: A >50 μM; B 10-50 μM; C <10 μM.

[2] = human respiratory syncytial virus, HEp-2, read-out: Human RSV-A (“Long” strain) EC50
[3] = HEp-2 cells, RSV-A Long strain, ATPlite readout, read-out: Human RSV-A (“Long” strain) EC50

SMILES | EC50 [1, 2] [nM] | CC50 (HEp-2 cells) [nM] | EC50 [1, 3] [nM]
COCCOc1cccc(-c2nnc(NC3N=C(c4ccccc4)c4ccccc4NC3=O)o2)c1 (centres unmarked) [Example 1] | > 800 | > 50000 | –
O=C1Nc2ccccc2C(c2ccccc2)=NC1Nc1nnc(-c2ccccc2)o1 (centres unmarked) [Example 2] | > 800 | > 50000 | –
O=C1Nc2ccccc2C(c2ccccc2)=NC1Nc1nnc(-c2cccc(F)c2)o1 (centres unmarked) [Example 3] | > 800 | > 50000 | –
COc1cccc(-c2nnc(NC3N=C(c4ccccc4)c4ccccc4NC3=O)o2)c1 (centres unmarked) [Example 4] | > 800 | > 50000 | –
O=C1Nc2ccccc2C(c2ccccc2)=NC1Nc1nnc(C2CC2)o1 (centres unmarked) [Example 5] | > 800 | > 50000 | –
O=C1Nc2ccccc2C(c2ccccc2)=NC1Nc1nnc(-c2ccccc2F)o1 (centres unmarked) [Example 6] | > 800 | > 50000 | –
O=C1Nc2ccccc2C(c2ccccc2)=N[C@H]1Nc1nnc(-c2ccc(F)cc2)o1 [Example 7b] | > 800 | 10000 to 50000 | –
COc1ccc(-c2nnc(NC3N=C(c4ccccc4)c4ccccc4NC3=O)o2)cc1 (centres unmarked) [Example 8] | > 800 | > 50000 | –
COc1ccccc1-c1nnc(NC2N=C(c3ccccc3)c3ccccc3NC2=O)o1 (centres unmarked) [Example 9] | > 800 | > 50000 | –
O=C1Nc2ccccc2C(c2ccccc2)=N[C@@H]1Nc1nnc(-c2ccco2)o1 [Example 10a] | 400 to 800 | > 50000 | –
O=C1Nc2ccccc2C(c2ccccc2)=N[C@H]1Nc1nnc(-c2ccco2)o1 [Example 10b] | > 800 | < 10000 | –
O=C1Nc2ccccc2C(c2ccccc2)=NC1Nc1nnc(-c2ccccn2)o1 (centres unmarked) [Example 11] | 400 to 800 | > 50000 | –
N#Cc1ccc(-c2nnc(NC3N=C(c4ccccc4)c4ccccc4NC3=O)o2)cc1 (centres unmarked) [Example 12] | 400 to 800 | > 50000 | –
O=C1Nc2ccccc2C(c2ccccc2)=NC1Nc1nnc(-c2ccc(Cl)cc2)o1 (centres unmarked) [Example 13] | < 400 | > 50000 | –
COc1cc(-c2nnc(NC3N=C(c4ccccc4)c4ccccc4NC3=O)o2)ccc1F (centres unmarked) [Example 14] | < 400 | 10000 to 50000 | –
CC(C)Oc1cccc(-c2nnc(NC3N=C(c4ccccc4)c4ccccc4NC3=O)o2)c1 (centres unmarked) [Example 15] | 400 to 800 | > 50000 | –
O=C1Nc2ccccc2C(c2ccccc2)=NC1Nc1nnc(-c2ccc3ccccc3c2)o1 (centres unmarked) [Example 16] | 400 to 800 | > 50000 | –
O=C1Nc2ccccc2C(c2ccccc2)=NC1Nc1nnc(-c2cccc3ccccc23)o1 (centres unmarked) [Example 17] | > 800 | > 50000 | –
Cc1nnc(NC2N=C(c3ccccc3)c3ccccc3NC2=O)o1 (centres unmarked) [Example 18] | > 800 | > 50000 | –
Cc1ccc(-c2nnc(NC3N=C(c4ccccc4)c4ccccc4NC3=O)o2)s1 (centres unmarked) [Example 19] | > 800 | > 50000 | –
O=C1Nc2ccccc2C(c2ccccc2)=NC1Nc1nnc(-c2ccc(Cl)o2)o1 (centres unmarked) [Example 20] | > 800 | > 50000 | –
O=C1Nc2ccccc2C(c2ccccc2)=NC1Nc1nnc(C2CCOCC2)o1 (centres unmarked) [Example 21] | > 800 | > 50000 | –
O=C1Nc2ccccc2C(c2ccccc2)=NC1Nc1nnc(Cc2ccccc2)o1 (centres unmarked) [Example 22] | > 800 | > 50000 | –
O=C1Nc2ccccc2C(c2ccccc2)=NC1Nc1nnc(-c2ccc(F)cn2)o1 (centres unmarked) [Example 23] | > 800 | > 50000 | –
O=C1Nc2ccccc2C(c2ccccc2)=NC1Nc1nnc(-c2ccc(C(F)(F)F)cn2)o1 (centres unmarked) [Example 25] | > 800 | > 50000 | –

SMILES | EC50 [1, 2] [nM] | CC50 (HEp-2 cells) [nM] | EC50 [1, 3] [nM]
Cc1cccc(-c2nnc(NC3N=C(c4ccccc4)c4ccccc4NC3=O)o2)n1 (centres unmarked) [Example 26] | > 800 | > 50000 | –
CS(=O)(=O)c1ccc(-c2nnc(NC3N=C(c4ccccc4)c4ccccc4NC3=O)o2)cc1 (centres unmarked) [Example 27] | > 800 | > 50000 | –
O=C1Nc2ccccc2C(c2ccccc2)=NC1Nc1nnc(-c2ccc(C(F)(F)F)cc2)o1 (centres unmarked) [Example 28] | > 800 | > 50000 | –
O=C1Nc2ccccc2C(c2ccccc2)=NC1Nc1nnc(-c2cccc(C(F)(F)F)c2)o1 (centres unmarked) [Example 29] | > 800 | > 50000 | –
O=C1Nc2ccccc2C(c2ccccc2)=NC1Nc1nnc(-c2ccc(OC(F)(F)F)cc2)o1 (centres unmarked) [Example 30] | > 800 | > 50000 | –
NS(=O)(=O)c1ccc(-c2nnc(NC3N=C(c4ccccc4)c4ccccc4NC3=O)o2)cc1 (centres unmarked) [Example 31] | 400 to 800 | > 50000 | –
N#Cc1cc(-c2nnc(NC3N=C(c4ccccc4)c4ccccc4NC3=O)o2)ccc1F (centres unmarked) [Example 32] | 400 to 800 | > 50000 | –
N#Cc1ccc(-c2nnc(NC3N=C(c4ccccc4)c4ccccc4NC3=O)o2)cc1F (centres unmarked) [Example 33] | > 800 | > 50000 | –
Cc1cc(-c2nnc(NC3N=C(c4ccccc4)c4ccccc4NC3=O)o2)ccc1C#N (centres unmarked) [Example 34] | 400 to 800 | > 50000 | –
N#Cc1cccc(-c2nnc(NC3N=C(c4ccccc4)c4ccccc4NC3=O)o2)c1 (centres unmarked) [Example 35] | > 800 | > 50000 | –
O=C1Nc2ccccc2C(c2ccccc2)=NC1Nc1nnc(-c2ccc(-n3cccn3)cc2)o1 (centres unmarked) [Example 36] | 400 to 800 | 10000 to 50000 | –
O=C1Nc2ccccc2C(c2ccccc2)=NC1Nc1nnc(-c2cccnc2)o1 (centres unmarked) [Example 37] | > 800 | > 50000 | –
N#Cc1cc(-c2nnc(NC3N=C(c4ccccc4)c4ccccc4NC3=O)o2)ccn1 (centres unmarked) [Example 38] | > 800 | > 50000 | –
O=C1Nc2ccccc2C(c2ccccc2)=NC1Nc1nnc(-c2ccc(=O)[nH]c2)o1 (centres unmarked) [Example 39] | > 800 | > 50000 | –
O=C1Nc2ccccc2C(c2ccccc2)=NC1Nc1nnc(-c2ccc3nc[nH]c3c2)o1 (centres unmarked) [Example 41] | > 800 | > 50000 | –
O=C1Nc2ccccc2C(c2ccccc2)=NC1Nc1nnc(-c2cc3cccnc3s2)o1 (centres unmarked) [Example 43] | > 800 | > 50000 | –
CN1CCc2nc(-c3nnc(NC4N=C(c5ccccc5)c5ccccc5NC4=O)o3)sc2C1 (centres unmarked) [Example 44] | > 800 | > 50000 | –
COCCCc1sc(C)nc1-c1nnc(N[C@H]2N=C(c3ccccc3)c3ccccc3NC2=O)o1 [Example 479] | > 800 | – | –
O=C1Nc2ccccc2C(c2ccccc2)=N[C@@H]1Nc1nnc(-c2nc(C(F)(F)F)sc2N2CCO[C@@H]3C[C@@H]32)o1 [Example 484] | – | – | < 400
O=C1Nc2ccccc2C(c2ccccc2)=N[C@@H]1Nc1nnc(-c2nc(C(F)(F)F)sc2N2CCO[C@H]3C[C@H]32)o1 [Example 485] | – | – | > 800
O=C1Nc2ccccc2C(c2ccccc2)=N[C@H]1Nc1nnc(-c2nc(C(F)(F)F)sc2N2CCO[C@@H]3C[C@@H]32)o1 [Example 486] | – | – | > 800
O=C1Nc2ccccc2C(c2ccccc2)=N[C@H]1Nc1nnc(-c2nc(C(F)(F)F)sc2N2CCO[C@H]3C[C@H]32)o1 [Example 487] | – | – | > 800
O=C1Nc2ccccc2C(c2ccccc2)=N[C@H]1Nc1nnc(-c2cn(CC(F)(F)F)nc2N2CCOCC2)o1 [Example 488] | – | – | < 400
O=C1Nc2ccccc2C(c2ccccc2)=N[C@@H]1Nc1nnc(-c2cn(CC(F)(F)F)nc2N2CCOCC2)o1 [Example 489] | – | – | > 800
O=C1Nc2ccccc2C(c2ccccc2)=N[C@@H]1Nc1nnc(-c2nc(C3(C(F)(F)F)CCC3)sc2N2CCOCC2)o1 [Example 490] | < 400 | – | –

From US12268694B2, “Combination pharmaceutical agents as RSV inhibitors” (Enanta Pharmaceuticals, Inc., priority 2017, dated 2025)
